Target: ACAT enzyme
Test: Measurement of ACAT enzyme inhibitory activity of rabbit small intestinal microsomes
Assay type: biochemical
Conditions: rabbit small intestinal mucosa microsome fraction 0.5 mg/ml, 43 µM oleoyl CoA containing [1-14C]oleoyl CoA, 37°C for 10 minutes
Method: Measurement of ACAT enzyme inhibitory activity (measurement of ACAT enzyme inhibitory activity of rabbit small intestinal microsomes
Rabbit small intestinal mucosa microsome was prepared and the ACAT enzyme activity was measured by the method of Salone and Field (reference: Biochemica et Biophysica, vol. 712, p. 557 (1982)) with a slight modification.
Using a 40 mM phosphate buffer containing 30 mM EDTA, 50 mM KCl, and 1.0M sucrose and having a pH of 7.4 (buffer A), rabbit small intestinal mucosa was homogenized. This was centrifuged at 10,000 x g and 4°C for 30 minutes to provide a supernatant. The supernatant was further centrifuged at 105,000 x g and 4°C for 1 hour to provide a precipitate. The precipitate was resuspended in the buffer A and used as the microsome fraction.
To the buffer A containing 43 µM bovine serum albumin and 0.5 mg/ml microsome fraction was added various concentrations of each specimen compound (compounds obtained in Examples 1, 3 to 5, and 7 to 14) in dimethylsulfoxide in amounts of 1% v/v. The mixture was heated at 37°C for 5 minutes. […]
0.111 kBq of [^3H] cholesteryl oleate and IN hydrochloric acid were added, and the mixture was stirred. The cholesteryl oleate extracted into the chloroform layer was isolated by a thin layer chromatography, and the radioactivity was measured as the ACAT activity.

CCCCCCCCCCOc1ccc2c(=O)ccoc2c1NC(=O)C(C)(C)C [Example 8, N-(7-decyloxyl-4-oxo-4H-1-benzopyran8-yl)-2,2-dimethylpropanamide]
IC50: 130 nM

Source: patent EP0623608B1, “BENZOPYRAN DERIVATIVE, PRODUCTION THEREOF, AND PHARMACEUTICAL PREPARATION CONTAINING THE SAME AS ACTIVE INGREDIENT” (TEIJIN LIMITED, priority 1992, dated 1993)
